Measured values from patent US9580390B2, “Indazole compounds as kinase inhibitors and method of treating cancer with same” (University Health Network, priority 2011, dated 2017).
Read-outs that look alike come from different tables or passages of the source.

Legend:
[1] = tested on: colon cancer cells (HCT116); test: Cancer cell line growth inhibition (SRB assay); assay type: cell-based; details: Homo sapiens, HCT-116, read-out: Cancer Cell Line GI50 Range HCT116
[2] = target: T1, human PLK4 (Homo sapiens, UniProt O00444); test: PLK4 inhibition assay (indirect ELISA); assay type: biochemical; details: 15 μM ATP
T1 construct: amino terminal GST fusion of residues 1-391 of human PLK4; made in house; host or cells: E. coli
T1 sequence (O00444 1-391): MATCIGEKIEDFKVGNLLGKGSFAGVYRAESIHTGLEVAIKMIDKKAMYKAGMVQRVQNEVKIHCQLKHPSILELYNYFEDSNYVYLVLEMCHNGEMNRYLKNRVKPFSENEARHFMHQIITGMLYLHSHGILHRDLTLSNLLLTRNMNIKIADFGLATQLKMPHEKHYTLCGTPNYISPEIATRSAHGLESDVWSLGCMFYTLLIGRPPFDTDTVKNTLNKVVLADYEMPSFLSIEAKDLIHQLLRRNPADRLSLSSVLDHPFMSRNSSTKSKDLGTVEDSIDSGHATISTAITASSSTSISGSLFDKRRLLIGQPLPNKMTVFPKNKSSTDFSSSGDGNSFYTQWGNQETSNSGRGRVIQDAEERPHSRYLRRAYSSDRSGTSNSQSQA
Summary of the method: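 Dephosphorylated GST-PLK4 (residues 1-391, E. coli; 4 nM) was preincubated 15 min with compound, then reacted 30 min with 15 μM ATP in HEPES pH 7.4, MgCl2, Brij 35 on MBP-coated plates. Phospho-MBP was detected by antibody/HRP ELISA at 450 nm; IC50 from 10-point titration by 4-parameter logistic fit, or single 10 μM % inhibition.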

[3] = tested on: TICs (Ovarian 2393A); test: Ovarian tumor-initiating cell growth inhibition (Alamar Blue); assay type: cell-based; details: 144 h; ovarian TICs, 6 days, Alamar Blue; read-out: Tumor Initiating Cell GI50 Range Ovarain 2393A
[4] = tested on: TICs (Colon 12); test: Colon tumor-initiating cell growth inhibition (Alamar Blue); assay type: cell-based; details: 216 h, 9 days, read-out: Tumor Initiating Cell GI50 Range Colon 12
[5] = tested on: ovarian cancer cells (PA-1); test: Cancer cell line growth inhibition (SRB assay); assay type: cell-based; details: read-out: Cancer Cell Line GI50 Range PA-1
[6] = target: T2, human TTK (Homo sapiens, UniProt P33981); test: TTK inhibition assay (indirect ELISA); assay type: biochemical; details: read-out: TTK IC50 Range
T2 construct: amino terminal GST fusion of full length human TTK; purchased Invitrogen
T2 sequence (P33981 1-857): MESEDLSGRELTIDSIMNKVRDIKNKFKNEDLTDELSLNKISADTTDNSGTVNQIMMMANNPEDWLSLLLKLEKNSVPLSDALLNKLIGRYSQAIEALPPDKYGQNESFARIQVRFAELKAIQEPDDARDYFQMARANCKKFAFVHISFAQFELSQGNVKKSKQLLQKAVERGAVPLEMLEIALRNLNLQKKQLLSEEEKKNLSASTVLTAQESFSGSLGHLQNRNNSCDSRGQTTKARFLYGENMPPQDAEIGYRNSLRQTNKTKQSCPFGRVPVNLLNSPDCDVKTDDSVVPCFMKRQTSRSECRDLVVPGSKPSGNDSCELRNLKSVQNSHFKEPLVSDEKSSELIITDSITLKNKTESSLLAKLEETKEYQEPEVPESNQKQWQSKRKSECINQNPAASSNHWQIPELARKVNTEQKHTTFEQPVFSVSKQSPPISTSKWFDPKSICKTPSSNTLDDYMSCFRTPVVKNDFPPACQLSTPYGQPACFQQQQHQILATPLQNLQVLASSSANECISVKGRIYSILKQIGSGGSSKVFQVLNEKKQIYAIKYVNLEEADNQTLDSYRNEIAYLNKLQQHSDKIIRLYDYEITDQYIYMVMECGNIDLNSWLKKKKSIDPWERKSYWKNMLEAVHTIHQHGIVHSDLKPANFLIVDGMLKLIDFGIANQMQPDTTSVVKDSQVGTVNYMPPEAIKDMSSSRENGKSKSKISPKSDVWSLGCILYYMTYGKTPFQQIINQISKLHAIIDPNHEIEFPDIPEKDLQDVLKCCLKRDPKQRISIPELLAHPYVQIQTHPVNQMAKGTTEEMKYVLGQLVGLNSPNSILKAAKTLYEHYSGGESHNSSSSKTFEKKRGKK

[7] = tested on: Breast cancer cells; test: Cancer cell line growth inhibition (SRB assay); assay type: cell-based; details: Homo sapiens; MDA-MB-468; read-out: Cancer Cell Line GI50 Range MDA-MB-468
[8] = HCT116 colon cancer cells, SRB assay
[9] = PA-1 ovarian cancer cells, SRB assay

Row | GI50 [1, 8] | GI50 [3] | GI50 ([4]; colon TICs, Alamar Blue) | GI50 [5, 9] | Compound | IC50 [2] | IC50 [6] | GI50 [1] | GI50 ([5]; Homo sapiens, PA-1) | GI50 [7] | GI50 ([4]; Colon 12 TICs)
1 | < 100 nM | 100 to 500 nM | < 100 nM | – | O=C(Nc1ccc2[nH]nc(-c3ccc(OC4CCOCC4)cc3)c2c1)C(c1ccsc1)N1CCCC1 (stereo not drawn) [Example A29, 2-(pyrrolidin-1-yl)-N-(3-(4-((tetrahydro-2H-pyran-4-yl)oxy)phenyl)-1H-indazol-5-yl)-2-(thiophen-3-yl)acetamide] | < 50 nM | – | – | – | – | –
2 | < 100 nM | 100 to 500 nM | < 100 nM | < 100 nM | CN1CCC(Oc2ccc(-c3n[nH]c4ccc(C(=O)NC(c5ccsc5)C5CCCC5)cc34)cc2)CC1 (stereo not drawn) [Example A110, N-(cyclopentyl(thiophen-3-yl)methyl)-3-(4-((1-methylpiperidin-4-yl)oxy)phenyl)-1H-indazol-5-carboxamide] | < 50 nM | – | – | – | – | –
3 | < 100 nM | < 100 nM | 100 to 500 nM | < 100 nM | O=CN1CCC(Oc2ccc(-c3n[nH]c4ccc(NC(=O)C(c5ccsc5)N5CCCC5)cc34)cc2)CC1 (stereo not drawn) [Example A118, N-(3-(4-((1-formylpiperidin-4-yl)oxy)phenyl)-1H-indazol-5-yl)-2-(pyrrolidin-1-yl)-2-(thiophen-3-yl)acetamide] | < 50 nM | – | – | – | – | –
4 | – | – | – | – | CC(C)CC(NC(=O)c1ccc2[nH]nc(-c3ccc(OC4CN(C5COC5)C4)cc3)c2c1)c1ccccc1Cl (stereo not drawn) [Example A357, N-(1-(2-chlorophenyl)-3-methylbutyl)-3-(4-((1-(oxetan-3-yl)azetidin-3-yl)oxy)phenyl)-1H-indazole-5-carboxamide] | < 50 nM | < 100 nM | 100 to 500 nM | 100 to 500 nM | 100 to 500 nM | –
5 | – | – | – | – | CC(C)C[C@H](NC(=O)c1ccc2[nH]nc(-c3ccc(N4CCN(C5COC5)CC4)cc3)c2c1)c1ccccn1 [Example A359, (S)-N-(3-methyl-1-(pyridin-2-yl)butyl)-3-(4-(4-(oxetan-3-yl)piperazin-1-yl)phenyl)-1H-indazole-5-carboxamide] | < 50 nM | < 100 nM | < 100 nM | < 100 nM | < 100 nM | –
6 | – | – | – | – | CC(C)(C)C[C@H](NC(=O)c1ccc2[nH]nc(-c3ccc(N4CCN(C5COC5)CC4)cc3)c2c1)c1ccccc1 [Example A372, (S)-N-(3,3-dimethyl-1-phenylbutyl)-3-(4-(4-(oxctan-3-yl)piperazin-1-yl)phenyl)-1H-indazole-5-carboxamide] | < 50 nM | < 100 nM | < 100 nM | < 100 nM | 100 to 500 nM | –
7 | – | – | – | – | CC(C)CC(NC(=O)c1ccc2[nH]nc(-c3ccc(OC4CC5CCC(C4)N5C4COC4)cc3)c2c1)c1ccccn1 [Example A373, N-(3-methyl-1-(pyridin-2-yl)butyl)-3-(4-(((1R,3R,5S)-8-(oxetan-3-yl)-8-azabicyclo[3.2.1]octan-3-yl)oxy)phenyl)-1H-indazole-5-carboxamide] | < 50 nM | < 100 nM | 100 to 500 nM | 100 to 500 nM | 100 to 500 nM | –
8 | – | – | – | – | CN1C2COCC1CC(Oc1ccc(-c3n[nH]c4ccc(C(=O)NC(c5ccccc5)C5CC5)cc34)cc1)C2 [Example A387, N-(cyclopropyl(phenyl)methyl)-3-(4-(((1R,5S,7s)-9-methyl-3-oxa-9-azabicyclo[3.3.1]nonan-7-yl)oxy)phenyl)-1H-indazole-5-carboxamide] | < 50 nM | < 100 nM | < 100 nM | < 100 nM | > 500 nM | –
9 | – | – | – | – | CN1[C@@H]2CCC[C@H]1C[C@@H](Oc1ccc(-c3n[nH]c4ccc(C(=O)NC(c5ccccc5)C5CC5)cc34)cc1)C2 (stereo partly drawn) [Example A390, N-(cyclopropyl (phenyl)methyl)-3-(4-(((1R,3R,5S)-9-methyl-9-azabicyclo[3.3.1]nonan-3-yl)oxy)phenyl)-1 H-indazole-5-carboxamide] | < 50 nM | < 100 nM | < 100 nM | < 100 nM | 100 to 500 nM | –
10 | – | – | – | – | O=C(N[C@H](CCO)c1ccccc1)c1ccc2[nH]nc(-c3ccc(N4[C@@H]5CC[C@H]4COC5)cc3)c2c1 [Example A423, 3-(4-((1R,5S)-3-oxa-8-azabicyclo[3.2.1]octan-8-yl)phenyl)-N-((R)-3-hydroxy-1-phenylpropyl)-1H-indazole-5-carboxamide] | < 50 nM | < 100 nM | < 100 nM | < 100 nM | < 100 nM | –
11 | – | – | – | – | CC(C)C[C@H](NC(=O)c1ccc2[nH]nc(-c3ccc(N4C5COCC4CC(O)C5)cc3)c2c1)c1ccccc1Cl (stereo partly drawn) [Example A424, N-((S)-1-(2-chlorophenyl)-3-methylbutyl)-3-(4-((1R,5S,7R)-7-hydroxy-3-oxa-9-azabicyclo[3.3.1]nonan-9-yl)phenyl)-1H-indazole-5-carboxamide] | < 50 nM | < 100 nM | < 100 nM | < 100 nM | < 100 nM | –
12 | – | – | – | – | CN1[C@@H]2CC[C@H]1C[C@@H](Oc1ccc(-c3n[nH]c4ccc(C(=O)NCC5(c6cccs6)CCOCC5)cc34)cc1)C2 [Example A445, 3-(4-(((1R,3R,5S)-8-methyl-8-azabicyclo[3.2.1]octan-3-yl)oxy)phenyl)-N-((4-(thiophen-2-yl)tetrahydro-2H-pyran-4-yl)methyl)-1H-indazole-5-carboxamide] | < 50 nM | < 100 nM | < 100 nM | < 100 nM | 100 to 500 nM | –
13 | – | – | – | – | O=C(NCC1(c2ccccc2)COC1)c1ccc2[nH]nc(-c3ccc(OC4CCN(C5COC5)CC4)cc3)c2c1 [Example A487, 3-(4-((1-(oxetan-3-yl)piperidin-4-yl)oxy)phenyl)-N-((3-phenyloxetan-3-yl)methyl)-1H-indazole-5-carboxamide] | < 50 nM | < 100 nM | > 500 nM | > 500 nM | > 500 nM | –
14 | – | – | – | – | O=C(NCC1(c2ccccc2)CCOCC1)c1ccc2[nH]nc(-c3ccc(N4[C@@H]5CC[C@H]4C[C@@H](O)C5)cc3)c2c1 [Example A492, 3-(4-((1R,3R,5S)-3-hydroxy-8-azabicyclo[3.2.1]octan-8-yI)phenyl)-N-((4-phenyltetrahydro-2H-pyran-4-yl)methyl)-1H-indazole-5-carboxamide] | < 50 nM | < 100 nM | < 100 nM | < 100 nM | < 100 nM | < 100 nM
15 | – | – | – | – | O=C(NCC1(c2ccccc2)CCOCC1)c1ccc2[nH]nc(-c3ccc(N4[C@@H]5COC[C@H]4C[C@@H](O)C5)cc3)c2c1 [Example A503, 3-(4-((1R,5S,7S)-7-hydroxy-3-oxa-9-azabicyclo[3.3.1]nonan-9-yl)phenyl)-N-((4-phenyltetrahydro-2H-pyran-4-yl)methyl)-1H-indazole-5-carboxamide] | < 50 nM | < 100 nM | < 100 nM | < 100 nM | 100 to 500 nM | –
